In ChEMBL document CHEMBL1201862, “PubChem BioAssay data set” (2004):
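Five concentrations, 48 hours, 96-well plates. GI50 is the concentration that inhibits growth by half.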 Calls of active or inactive are those of the source. Cut-off read from the data, not from the text of the source: active = GI50 up to about 1.1 µM and inactive = higher.

Tests used:
Assay in all cases: growth of human tumour cells (NCI), 48 h
SF-539 = tested on: SF-539
UO-31 = tested on: UO-31
U-251 = tested on: U-251
M19-MEL = tested on: M19-MEL
HCT-15 = tested on: HCT-15
LOX IMVI = tested on: LOX IMVI
SNB-75 = tested on: SNB-75
OVCAR-4 = tested on: OVCAR-4
KM12 = tested on: KM12
NCI-H522 = tested on: NCI-H522
Malme-3M = tested on: Malme-3M
OVCAR-3 = tested on: OVCAR-3
A498 = tested on: A498
SNB-19 = tested on: SNB-19
K562 = tested on: K562
SF-295 = tested on: SF-295
HOP-62 = tested on: HOP-62
NCI/ADR-RES = tested on: NCI/ADR-RES
MDA-N = tested on: MDA-N
DMS-114 = tested on: DMS-114

| SMILES | GI50 (SF-539) | GI50 (UO-31) | GI50 (U-251) | GI50 (M19-MEL) | GI50 (HCT-15) | GI50 (LOX IMVI) | GI50 (SNB-75) | GI50 (OVCAR-4) | GI50 (KM12) | GI50 (NCI-H522) | GI50 (Malme-3M) | GI50 (OVCAR-3) | GI50 (A498) | GI50 (SNB-19) | GI50 (K562) | GI50 (SF-295) | GI50 (HOP-62) | GI50 (NCI/ADR-RES) | GI50 (MDA-N) | GI50 (DMS-114) |
| --- | --- | --- | --- | --- | --- | --- | --- | --- | --- | --- | --- | --- | --- | --- | --- | --- | --- | --- | --- | --- |
| O=C(NN1C(=O)C(Cl)C1c1cccc(Cl)c1)c1ccccc1O (stereo not drawn) | > 100 µM (inactive) | > 100 µM (inactive) | > 100 µM (inactive) | > 100 µM (inactive) | > 100 µM | > 100 µM (inactive) | > 100 µM (inactive) | > 100 µM (inactive) | > 100 µM (inactive) | > 100 µM (inactive) | > 100 µM (inactive) | > 100 µM (inactive) | > 100 µM (inactive) | > 100 µM (inactive) | > 100 µM (inactive) | 68.4 µM (inactive) |  |  |  |  |
| CC(C)CNC(=O)O | > 100 µM (inactive) | > 100 µM (inactive) | > 100 µM (inactive) |  | > 100 µM | > 100 µM (inactive) | > 100 µM (inactive) | > 100 µM (inactive) | > 100 µM (inactive) | > 100 µM (inactive) | > 100 µM (inactive) | > 100 µM (inactive) | > 100 µM (inactive) | > 100 µM (inactive) | > 100 µM (inactive) | > 100 µM (inactive) | > 100 µM (inactive) | > 100 µM (inactive) | > 100 µM (inactive) |  |
| Oc1ccc2ccccc2c1/C=C/c1ccc2c(Br)cc(Br)c(O)c2n1 | 2.53 µM (inactive) | 4.05 µM (inactive) | 4.54 µM (inactive) |  | 0.787 µM | 2.6 µM (inactive) | 15.2 µM (inactive) | 9.82 µM (inactive) | 5.4 µM (inactive) | 3.56 µM (inactive) | 12.7 µM (inactive) | 2.49 µM (inactive) | 5.64 µM (inactive) | 6.73 µM (inactive) | 3.11 µM (inactive) | 4.32 µM (inactive) | 8.17 µM (inactive) | 2.41 µM (inactive) | 9.71 µM (inactive) |  |
| O=C(c1cccs1)N(Cc1cccnc1)C(=S)N(Cc1cccnc1)C(=O)c1cccs1 | 29.9 µM (inactive) | > 100 µM (inactive) | 32.7 µM (inactive) |  | > 100 µM | 5.5 µM (inactive) | 37.8 µM (inactive) | > 100 µM (inactive) | 24.4 µM (inactive) | 36.5 µM (inactive) | > 100 µM (inactive) | 53.7 µM (inactive) | 32.3 µM (inactive) | 35.5 µM (inactive) | 26.4 µM (inactive) | 32.2 µM (inactive) | 35.6 µM (inactive) | > 100 µM (inactive) | 33.4 µM (inactive) |  |
| CC(=O)/C(=C\c1ccccc1)C(=O)Nc1ccccc1 | > 100 µM (inactive) | > 100 µM (inactive) | > 100 µM (inactive) | > 100 µM (inactive) |  | > 100 µM (inactive) |  | > 100 µM (inactive) | > 100 µM (inactive) | > 100 µM (inactive) | > 100 µM (inactive) | > 100 µM (inactive) |  | > 100 µM (inactive) | > 100 µM (inactive) | 44.1 µM (inactive) | > 100 µM (inactive) |  |  | > 100 µM (inactive) |
| CCN(CC)c1ccc(/C=C2\CCc3ccc([N+](=O)[O-])cc3C2=O)cc1 | 2.25 µM (inactive) | 7.46 µM (inactive) | 1.7 µM (inactive) |  | 0.64 µM | 0.409 µM (active) | 2.52 µM (inactive) | > 100 µM (inactive) | 0.582 µM (active) | 0.912 µM (active) | 2.52 µM (inactive) | 1.93 µM (inactive) | 2.56 µM (inactive) | 1.42 µM (inactive) | 0.0755 µM (active) | 1.4 µM (inactive) | 0.471 µM (active) | 1.03 µM (active) | 0.17 µM (active) |  |
| CCCc1nc(Cl)c(Cl)c(Cl)n1 | 26.9 µM (inactive) | 2.71 µM (inactive) | 14.7 µM (inactive) |  | 15.8 µM | 3.82 µM (inactive) | 4.28 µM (inactive) | 16 µM (inactive) | 38.6 µM (inactive) | 12.4 µM (inactive) | 10.7 µM (inactive) | 6.64 µM (inactive) | > 100 µM (inactive) | 62.1 µM (inactive) | 9.53 µM (inactive) | > 60.4 µM (inactive) | 33.7 µM (inactive) | 27 µM (inactive) | 33.8 µM (inactive) |  |
| CC(=O)NC1C(OCc2ccccc2)OC(CO)C(O)C1OC(C)C(=O)NC(C)C(=O)NC(CCC(=O)NCCCNc1c2ccccc2nc2cccc([N+](=O)[O-])c12)C(N)=O (stereo not drawn) | 3.86 µM (inactive) | 2.5 µM (inactive) | 1.6 µM (inactive) |  | 1.67 µM | 3.65 µM (inactive) | 1.99 µM (inactive) | 5.14 µM (inactive) | 2.57 µM (inactive) | 1.48 µM (inactive) | 2.21 µM (inactive) | 2.34 µM (inactive) | 2.01 µM (inactive) | 3.67 µM (inactive) | 1.17 µM (inactive) | 3.26 µM (inactive) | 1.91 µM (inactive) | 4.09 µM (inactive) | 1.25 µM (inactive) |  |
| COc1ccccc1NC(=S)NN=C(C)c1cccc(C(C)=NNC(=S)Nc2ccccc2OC)n1 | 19.9 µM (inactive) | 20.6 µM (inactive) | 34.3 µM (inactive) |  | 28.5 µM | 31.8 µM (inactive) | 94.6 µM (inactive) | 24.4 µM (inactive) | 26.1 µM (inactive) | 45.6 µM (inactive) | 3.49 µM (inactive) | 7.87 µM (inactive) | 29.1 µM (inactive) | 77.4 µM (inactive) | 20 µM (inactive) | 26.8 µM (inactive) | 42.8 µM (inactive) | 10.4 µM (inactive) | 70.5 µM (inactive) |  |
| Cc1nc2c(C)ccc([N+](=O)[O-])c2c(NCCCN(C)C)c1C | > 76.9 µM (inactive) | > 100 µM (inactive) | > 57.8 µM (inactive) |  | > 39.4 µM | 44.3 µM (inactive) | > 65.3 µM (inactive) | > 100 µM (inactive) | > 100 µM (inactive) | 26.9 µM (inactive) | 29 µM (inactive) | 47.9 µM (inactive) | > 22.3 µM (inactive) | > 100 µM (inactive) | 32.3 µM (inactive) | 38.4 µM (inactive) | > 43.9 µM (inactive) | > 100 µM (inactive) | 33.1 µM (inactive) |  |
| O=C(CC(=O)N1N=C(n2ccc3ccccc32)CC1c1ccccc1)Nc1cccc(Cl)c1 (stereo not drawn) | > 100 µM (inactive) | > 100 µM (inactive) | > 100 µM (inactive) | > 100 µM (inactive) | > 100 µM | 66.4 µM (inactive) | 60.4 µM (inactive) | > 100 µM (inactive) | > 100 µM (inactive) | > 100 µM (inactive) | > 100 µM (inactive) | > 100 µM (inactive) | > 100 µM (inactive) | > 100 µM (inactive) | > 100 µM (inactive) | > 100 µM (inactive) | > 100 µM (inactive) |  |  |  |
| CC1=C(C(=O)CC(=O)C(=O)Nc2cccc(C)c2C)Sc2ccccc2N1 | > 100 µM (inactive) | > 100 µM (inactive) | > 100 µM (inactive) | > 100 µM (inactive) | > 100 µM | > 100 µM (inactive) |  | > 100 µM (inactive) | > 100 µM (inactive) | > 100 µM (inactive) | > 100 µM (inactive) | > 100 µM (inactive) |  | > 100 µM (inactive) | > 100 µM (inactive) | > 100 µM (inactive) | > 100 µM (inactive) |  |  | > 100 µM (inactive) |
| CC1=C(C(=O)Nc2ccccc2C)C(c2ccc(Cl)cc2)C(C(=O)Nc2ccccc2C)=C(C)N1 | > 100 µM (inactive) | > 100 µM (inactive) | > 100 µM (inactive) | > 100 µM (inactive) | > 100 µM | > 100 µM (inactive) |  | > 100 µM (inactive) | > 100 µM (inactive) | > 100 µM (inactive) | > 100 µM (inactive) | > 100 µM (inactive) |  | > 100 µM (inactive) | > 100 µM (inactive) | > 100 µM (inactive) | > 100 µM (inactive) |  |  | > 100 µM (inactive) |
| C/C=C/C1OC(O)(C(C)C(O)[C@H](C)C2OC(=O)/C(OC)=C/C(C)=C/[C@@H](C)[C@@H](O)[C@@H](C)C(O)C(C)C/C(C)=C/C=C/C2OC)C[C@@H](OC2CC(O)C(OC(N)=O)C(C)O2)C1C (stereo partly drawn) | < 0.01 µM (active) | < 0.01 µM (active) | < 0.0167 µM (active) |  | < 0.01 µM | < 0.01 µM (active) | < 0.01 µM (active) | 3.04 µM (inactive) | < 0.01 µM (active) | < 0.01 µM (active) | < 0.01 µM (active) | < 0.0182 µM (active) | 0.131 µM (active) | < 0.01 µM (active) | < 0.01 µM (active) | < 0.01 µM (active) | < 0.01 µM (active) | < 0.0127 µM (active) | < 0.01 µM (active) |  |
| CC1(C)CC(O)C2=C(O1)C(=O)c1ncccc1C2=O (stereo not drawn) | 1.84 µM (inactive) | 1.85 µM (inactive) | 1.75 µM (inactive) |  | 4.02 µM | 1.58 µM (inactive) | 0.53 µM (active) | 1.73 µM (inactive) | 3.48 µM (inactive) | 1.29 µM (inactive) | 1.49 µM (inactive) | 2.35 µM (inactive) | 5.3 µM (inactive) | 4.65 µM (inactive) | 2.11 µM (inactive) | 1.83 µM (inactive) | 1.85 µM (inactive) | 1.5 µM (inactive) | 1.75 µM (inactive) |  |
| CC[C@](O)(CC(=O)O[C@H]1C(=O)O[C@@H]2C[C@H]3C(C)=CC(=O)[C@@H](O)[C@]3(C)[C@H]3[C@@]4(O)OC[C@]32[C@@H]1[C@@H](C)[C@H]4O)C(C)C | < 0.01 µM (active) | < 0.0122 µM (active) | < 0.01 µM (active) |  | < 0.01 µM | < 0.01 µM (active) | < 0.01 µM (active) | < 0.01 µM (active) | < 0.01 µM (active) | < 0.01 µM (active) | < 0.01 µM (active) | < 0.01 µM (active) | < 0.01 µM (active) | < 0.01 µM (active) | < 0.01 µM (active) | < 0.01 µM (active) | < 0.01 µM (active) | < 0.0188 µM (active) | < 0.01 µM (active) |  |
